US6632921B1, “Seryl-lysyl-based peptide and peptidomimetic inhibitors of N-myristoyl transferase as anti-infective agents” (G. D Searle & Co, priority 1995, dated 2003)
pEC50, pIC50: −log10 of the molar value. Values after ≈ are worked out from the molar mass of the structure shown. Where two headings read alike, the source gives them in different places. Non-standard residues stand in square brackets, D forms with d. Residues, ends and D or L forms follow the SMILES beside them. Cha = N[C@@H](CC1CCCCC1)C(=O)O; Aun = NCCCCCCCCCCC(=O)O

What was measured:
Candida albicans NMT = target: T1, Candida albicans NMT (Candida albicans, UniProt P30418); assay: NMT enzyme inhibition assay (radiochemical HPLC end-point), Candida NMT; type: biochemical; conditions: for pIC50: Table V, read-out: IC50 caNMT
T1 construct: made in house; host or cells: E. coli
T1 sequence (P30418 1-451): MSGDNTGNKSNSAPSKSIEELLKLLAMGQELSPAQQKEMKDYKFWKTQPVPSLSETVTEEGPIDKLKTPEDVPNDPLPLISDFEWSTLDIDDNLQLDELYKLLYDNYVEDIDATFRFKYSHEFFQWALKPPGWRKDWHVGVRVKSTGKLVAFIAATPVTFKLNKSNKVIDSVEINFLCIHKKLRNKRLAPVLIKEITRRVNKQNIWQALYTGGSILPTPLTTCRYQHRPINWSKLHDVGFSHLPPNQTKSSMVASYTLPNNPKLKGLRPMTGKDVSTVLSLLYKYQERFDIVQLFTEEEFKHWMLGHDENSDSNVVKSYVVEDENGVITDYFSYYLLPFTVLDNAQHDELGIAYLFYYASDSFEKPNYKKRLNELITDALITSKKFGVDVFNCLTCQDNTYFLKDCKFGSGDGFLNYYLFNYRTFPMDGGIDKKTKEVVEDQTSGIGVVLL
Experimental: Recombinant Candida albicans and human NMTs were expressed and purified from E. coli using previously described protocols. [D. A. Towler et al, Proc. Natl. Acad. Sci. USA, 84, 2707-2712 (1987); R. C. Weigand et al, J. Biol. Chem., 267, 8591-8598 (1992); R. J. Duronio et al, Proc. Natl. Acad. Sci. USA, 89, 4129-4133 (1992)] The ability of compounds to inhibit Candida NMT enzymatic activity was assessed using a radiochemical HPLC end-point assay as described previously for Saccharomyces cerevisiae and human NMTs. [D. Towler et al, Proc. Natl. Acad. Sci. USA, 83, 2812-2816 (1986); W. J. Rocque et al, J. Biol. Chem., 268, 9964-9971 (1991)] The donor substrate [^3H]myristoyl-coenzyme A was enzymatically synthesized from [^3H]myristic acid (50 Ci/mmol, Amersham, Arlington Heights, Ill.) and coenzyme A (Fluka Chemical Corp., Ronkonkoma, N.Y.), and purified as described previously. [W. J. Rocque et al, J. Biol. Chem., 268, 9964-9971 (1991)] The peptide acceptor substrate GNAASARR-NH2 was prepared by solid-phase peptide synthesis using the t-Boc amino acid methodology, followed by HF treatment and reverse-phase HPLC purification. Inhibitor stock solutions were prepared at 22 mM in DMSO; the final concentration of DMSO in each assay was 0.5% (v/v). Inhibition assays were carried out by combining variable amounts of inhibitor or buffer with […] of [^3H]myristoyl-coenzyme A (1 μCi, 9.09 Ci/mmol) and 2.2 nmoles of GNAASARR-NH2 in a total volume of 60 μL of 0.2 M N-[2-hydroxy-ethyl]piperazine-N′-[2-ethanesulfonic acid], pH 7.4, 2 mM DL-dithiothreitol, 0.2 mM ethylene glycol-bis-(β-aminoethyl ether) N,N,N′,N′-tetraacetic acid, and initiating the reaction by the addition of 50 μL of a Candida NMT solution (7-12 ng/50 μL). Assays with human NMT were identical except that they used 60-75 ng/50 μL of enzyme solution and 0.22 nmoles of GNAASARR-NH2. The reaction was quenched after 10 minutes at 24° C. by the addition of ice-cold MeOH, and the reaction products were separated and measured using C4 reverse-phase HPLC (Vydac 214TP10415; Separations Group, Hesperia, Calif.) and in-line scintillation counting using a Radiomatic A250 (Packard Instruments, Downers Grove, Ill.) and Ecolite(+) (ICN Biomedical, Costa Mesa, Calif.) as the scintillant. Selectivity was determined by calculating the ratio of the IC50 against human NMT to the IC50 against C. albicans NMT.

[1] = tested on: Candida albicans, strain B311; assay: Antifungal susceptibility testing, microdilution broth, pH 5.4/30° C./YNB; type: cell-based
Experimental: Antifungal Screens were set up initially against Candida albicans, strain B311, and Cryotococcus neoformans, strain L210425. Both pathogens, (originally from the stock culture collection, Medical mycology research center, Washington university-Barnes hospital), were obtained from Dr.Kobayashi, Prof.of infectious diseases, Washington University, St.Louis, Mo.
All cultures are maintained at 30° C. on Sabouraud's dextrose agar slants and subcultured at monthly intervals to fresh medium. All inocula for susceptibility testing are prepared in yeast nitogen base(YNB, Difco) broth.
A loopful of growth from Sabouraud dextrose agar slant is inoculated into 4 ml of YNB broth media and incubated at 30° C. overnight (18-24 hrs) with constant agitation (Gyratory Shaker, New Brunswick Scientific). Prior to setting up susceptibility testing, the organisms are counted in a hemocytometer, and diluted as needed into assay media.
1) (Assay at DH 5.4/30° C. Incubation/YNB Media).
Antifungal assays were carried out initially by a modification of the method published by Jones, et. al; (1), and communicated to Searle by Dr. Kobayashi, Washington University. [R. N. Jones et al, Manual of Clinical Microbiology, 4th ed., (1985)]
The antifungal susceptibility testing consists of a microdilution broth procedure performed in 96 well microtiter plates (Costar, cat#3799). Briefly, test compounds from a 20 mM stock solution in DMSO are diluted into sterile, deionized water (final DMSO concentration not exceeding 1%), to yield 2× the desired concentration (100 uM, 10 uM and 1 uM for an initial screen, or a selected concentration range in serial 2 fold dilutions for EC50 determination). One hundred microliters (100 ul) of each concentration is dispensed into triplicate wells of a 96 well microtiter plate. Appropriate dilutions of a suspension of C.albicans (1×10^6 cells/ml) in 2× YNB is distributed into each of the wells, including growth control wells containing no test compound as well as control wells with 0.5% DMSO. Amphotericin B at 0.05, 1 and 5 ug/ml is included in each assay plate as a positive control. The plates are incubated at 30° C. and cell growth is scored by reading the absorbance at 590 nm on an Elisa plate reader(Dynatech, MR.5000).

C.albicans, B311 = assay: Antifungal susceptibility testing, pH 7.0/35° C., 1x10^3 cells/mL; type: cell-based; conditions: Candida albicans, B311; pH 7.0/35° C./1x10^3 cells/mL, 48 hrs; read-out: EC50 - 48 HRS C.albicans
Experimental: (§1) 2) Assay at pH 7.0/35° C. Incubation/(Candida Strains Only).
(§2) Based on several papers published during 1990-1993 regarding the standardization of testing procedures at multiple research centers, and the finding that, inoculum size, pH of media, and the temperature of incubation drastically affect the antifungal activity of several compounds, particularly in the Azole class of antifungals, an additional assay was configured at pH 7.0 for Candida albicans. [M. A. Pfaller et al, Antimicrobial Agents and Chemotherapy, 34, 1648-1654 (1990); F. C. Odds et al, Antimicrobial Agents and Chemotherapy, 36, 1727-1737 (1992); R. A. Cook et al, Antimicrobial Agents and Chemotherapy, 34, 1542-1545 (1990)]
(§3) The assay format is identical to the first one with the following modifications: C.albicans cells are diluted to 1×10^3 cells/ml into 2× buffered YNB (YNB buffered with 1.65 mM MOPS, pH 7.0, with the addition of 2% Dextrose and 0.08% casamino acids mixture, bio 101. inc,cat #10420-100). Incubation is carried out at 35° C. instead of 30° C., and cell growth is monitored at 590 nm at 24 and 48 hrs as described. All other aspects of the assay are identical. This assay was validated with amphotericin B, fluconazole, cilofungin (Ly-121019), Nikkomycin and terbinafine using the following Candida strains- (C.albicans, B311, C.parasilosis, C.tropicalis, C.lusitaniae, C.glabrata, and C. albicans 516)-Table II. All strains were from Dr. Kobayashi, Washington university.

C.glabrata = assay: as above; type: cell-based; conditions: Nakaseomyces glabratus; pH 7.0/35° C./1x10^3 cells/mL, 48 hrs; read-out: EC50 - 48 HRS C.glab.
Experimental: as §1, §2, §3

C.parasilosis = assay: as above; type: cell-based; conditions: pH 7.0/35° C./1x10^3 cells/mL, 48 hrs; read-out: EC50 - 48 HRS C.para
Experimental: as §1, §2, §3

C.tropicalis = assay: as above; type: cell-based; conditions: Candida tropicalis; pH 7.0/35° C./1x10^3 cells/mL, 48 hrs; read-out: EC50 - 48 HRS C.trop.
Experimental: as §1, §2, §3

C.lusitaniae = assay: as above; type: cell-based; conditions: Clavispora lusitaniae; pH 7.0/35° C./1x10^3 cells/mL, 48 hrs; read-out: EC50 - 48 HRS C.lusi.
Experimental: as §1, §2, §3

C. albicans 516 = assay: as above; type: cell-based, Candida albicans; conditions: Candida albicans, 516; pH 7.0/35° C./1x10^3 cells/mL, 48 hrs; read-out: EC50 - 48 HRS C.albicans (516)
Experimental: as §1, §2, §3

[2] = B311, 24 hours, Table V (values agree with pH 5.4 assay), read-out: caEC50 24 hours
[3] = read-out: % inhibition of caNMT
[4] = B311, 24 h, pH 5.4, read-out: caEC50 24 hours

Compound Cc1nccn1CCCCc1ccc(CC(=O)N[C@@H](CO)C(=O)N[C@@H](CCCCN)C(=O)NC(CC(=O)O)C2CCCCC2)cc1 (mixture of isomers) [Example 9, Lysinamide, N-[1-Cyclohexyl-2-carboxyethyl]-N^2-[N-[[4-[4-(2-methyl-1H-imidazol-1-yl)butyl]phenyl]acetyl]-L-seryl]-, ±, bis-trifluoroacetate] has a pIC50 (Candida albicans NMT) of 5.22 and a pEC50 [1, 2] of under 4.00.
For Cc1nccn1CCCCc1ccc(CC(=O)N[C@@H](CO)C(=O)N[C@@H](CCCCN)C(=O)NC(CC(=O)O)C2CCCCCCC2)cc1 (mixture of isomers) [Example 10, Lysinamide, N-[1-Cyclooctyl-2-carboxyethyl]-N^2-[N-[[4-[4-(2-methyl-1H-imidazol-1-yl)butyl]phenyl]acetyl]-L-seryl]-, ±, bis-trifluoroacetate], the inhibition at 10 µM (Candida albicans NMT; @ 10 μM, read-out: % inhibition of caNMT) was 40% and the pEC50 [1, 2] was under 4.00.
For C[C@@H]1[C@H](O)[C@@H](C)/C=C/C=C/C=C/C=C/C=C/C=C/C=C/[C@H](O[C@@H]2O[C@H](C)[C@@H](O)[C@H](N)[C@@H]2O)C[C@@H]2O[C@](O)(C[C@@H](O)C[C@@H](O)[C@H](O)CC[C@@H](O)C[C@@H](O)CC(=O)O[C@H]1C)C[C@H](O)[C@H]2C(=O)O [Amphotericin, amphotericin B], the EC50 (C.albicans, B311) was 0.11 µg/mL (≈ 0.119 µM), the EC50 (C.glabrata) was 0.47 µg/mL (≈ 0.509 µM) and the EC50 (C.parasilosis) was 0.31 µg/mL (≈ 0.335 µM). It also gave an EC50 (C.tropicalis) of 0.44 µg/mL (≈ 0.476 µM), an EC50 (C.lusitaniae) of 0.42 µg/mL (≈ 0.455 µM) and an EC50 (C. albicans 516) of 0.14 µg/mL (≈ 0.152 µM).
NCCCCCCCCCCC(=O)N[C@@H](CO)C(=O)N[C@@H](CCCCN)C(=O)N[C@@H](CC1CCCCC1)C(=O)O [Example 3, L-Alanine, 3-cyclohexyl-N-[[(11-amino-undecanoyl)-L-seryl]-L-lysyl]-, bis-trifluoroacetate] (H-[Aun]SK[Cha]-OH) gave an inhibition at 11 µM (Candida albicans NMT; [3]) of 80% and a pEC50 [1, 4] of 4.48.
CC(C)C[C@H](NC(=O)[C@H](CCCCN)NC(=O)[C@H](CO)NC(=O)CCCCCCCCCCN)C(=O)O [Example 4, L-leucine, N-[[(11-amino-undecanoyl)-L-seryl]-L-lysyl]-, bis-trifluoroacetate] (H-[Aun]SKL-OH) gave a pIC50 (Candida albicans NMT) of 5.17 and a pEC50 [1, 4] of 4.20.
Work on Cc1nccn1CCCCc1ccc(CC(=O)N[C@@H](CO)C(=O)N[C@@H](CCCCN)C(=O)N[C@@H](C)C(=O)O)cc1 [Example 5, L-alanine, N-[N^2-[N-[[4-[4-(2-methyl-1H-imidazol-1-yl)butyl]phenyl]acetyl]-L-seryl]-L-lysyl]-, bis-trifluoroacetate] yielded an inhibition at 10 µM (Candida albicans NMT; [3]) of 27% and a pEC50 [1, 4] of 4.17.
For Cc1nccn1CCCCc1ccc(CC(=O)N[C@@H](CO)C(=O)N[C@@H](CCCCN)C(=O)N[C@@H](Cc2ccccc2)C(=O)O)cc1 [Example 6, L-Alanine, 3-phenyl-N-[N^2-[N-[[4-[4-(2-methyl-1H-imidazol-1-yl)butyl]phenyl]acetyl]-L-seryl]-L-lysyl]-, bis-trifluoroacetate], the inhibition at 10 µM (Candida albicans NMT; [3]) was 36% and the pEC50 [1, 4] was 4.10.
For CC[C@H](C)[C@H](NC(=O)[C@H](CCCCN)NC(=O)[C@H](CO)NC(=O)Cc1ccc(CCCCn2ccnc2C)cc1)C(=O)O [Example 7, L-iso-leucine, N-[N^2-[N-[[4-[4-(2-methyl-1H-imidazol-1-yl)butyl]phenyl]acetyl]-L-seryl]-L-lysyl]-, bis-trifluoroacetate], the pIC50 (Candida albicans NMT) was 4.00 and the pEC50 [1, 2] was 4.01.
For Cc1nccn1CCCCc1ccc(CC(=O)N[C@@H](CO)C(=O)N[C@@H](CCCCN)C(=O)N[C@@H](CC(C)C)C(=O)O)cc1 [Example 8, L-Leucine, N-[N^2-[N-[[4-[4-(2-Methyl-1H-imidazol-1-yl)butyl]phenyl]acetyl]-L-seryl]-L-lysyl]-, bis-trifluoroacetate], the inhibition at 10 µM (Candida albicans NMT; [3]) was 78% and the pEC50 [1, 4] was under 4.00.
Work on Cc1nccn1CCCCc1ccc(CC(=O)N[C@@H](CO)C(=O)N[C@@H](CCCCN)C(=O)N[C@H](CC2CCCCC2)C(=O)O)cc1 [Example 11, D-alanine, 3-cyclohexyl-N-[N^2-[N-[[4-[4-(2-methyl-1H-imidazol-1-yl)butyl]phenyl]acetyl]-L-seryl]-L-lysyl]-, bis-trifluoroacetate] yielded a pIC50 (Candida albicans NMT) of 4.74 and a pEC50 [1, 4] of under 4.00.
